Test results published in patent US20240382471A1, “GLUCAGON-LIKE PEPTIDE-1 RECEPTOR MODULATORS AND USES THEREOF” (HEPAGENE THERAPEUTICS (HK) LIMITED, priority 2021, published 2024).

Molecular target: GLP1R (Homo sapiens, UniProt P43220)
Experiment: GLP1R cAMP assay (HTRF cAMP detection, agonist activity)
Assay type: cell-based
Parameters: host or cells: Flp-In-293
Conditions: Flp-In-293-GLP1R cells, 30 min at 37° C., read-out: EC50 (nM) Assay 1
Description: GLP1R-mediated agonist activity was determined with a cell-based functional assay utilizing an HTRF (Homogeneous Time-Resolved Fluorescene) cAMP detection kit that measures CAMP levels in the cell. Reagents and equipment used in the assay are listed below, followed by the protocol.
• 1) Cell Line: Flp-In-293-GLP1R (constructed by Pharmaron Beijing Co., Ltd) • 2) Complete Medium: DMEM+10% FBS+1×Penicillin-Streptomycin+200 μg/mL HB • 3) Assay Buffer: 1×HBSS+20 mM HEPES+0.1% BSA+500 μM IBMX
• a) Seed Flpin-293-GLP1R cells at 20,000 cells/well into 384 well assay plate (6007680-50, PE) using complete medium. • b) Prepare 4×compound working solution with assay buffer. • c) Add 5 μL 4×compound working solution into cell plate, incubate 30 min at 37° C. • d) Dilute Eu-cAMP tracer (1/50) with lysis buffer and add 10 μl/well to assay plate. • e) Dilute Ulight-anti-cAMP (1/150) with lysis buffer and add 10 μl/well to assay plate. • f) Incubate 1 h at RT. • g) Read the plate at wavelengths of 665 nm and 615 nm on Envision 2105 plate reader.
• 3.1% Activity is calculated as follow:
% Activity=100−(Signalcmpd−SignalAve_PC)/(SignalAve_VC−SignalAve_PC)×100. • 3.2 Calculate EC50 and Plot effect-dose curve of cmpds:
Y=Bottom+(Top−Bottom)/(1+10^((Log EC50−X)*Hill Slope)) • X: log of agonist concentration; Y: % Activity.

Chain of GLP1R (P43220 24-463, species assumed): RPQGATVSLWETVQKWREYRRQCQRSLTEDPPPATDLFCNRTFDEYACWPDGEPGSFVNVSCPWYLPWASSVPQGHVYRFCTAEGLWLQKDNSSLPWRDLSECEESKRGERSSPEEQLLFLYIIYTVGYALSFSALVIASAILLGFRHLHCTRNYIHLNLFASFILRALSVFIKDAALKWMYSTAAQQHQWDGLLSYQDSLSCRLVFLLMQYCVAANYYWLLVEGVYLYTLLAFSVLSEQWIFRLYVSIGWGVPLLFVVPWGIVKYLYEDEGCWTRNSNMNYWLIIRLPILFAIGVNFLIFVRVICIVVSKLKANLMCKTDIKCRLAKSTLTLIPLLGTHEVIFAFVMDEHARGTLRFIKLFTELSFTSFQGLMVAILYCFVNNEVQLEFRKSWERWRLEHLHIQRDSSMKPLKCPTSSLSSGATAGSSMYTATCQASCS

Row | Compound | EC50
1 | N#Cc1ccc(COc2ncccc2N2CC3CCC(C2)N3Cc2nc3ccc(C(=O)O)cc3n2C[C@@H]2CCO2)c(F)c1 [Compound 2-16, 2-[(3-{2-[(4-cyano-2-fluorophenyl)methoxy]pyridin-3-yl}-3,8-diazabicyclo[3.2.1]octan-8-yl)methyl]-3-[(2S)-oxetan-2-ylmethyl]-1,3-benzodiazole-5-carboxylic acid] | > 4 nM
2 | O=C(O)c1ccc2nc(CN3C4CCC3CN(c3cccnc3OCc3ccc(Cl)cc3F)C4)n(C[C@@H]3CCO3)c2c1 [Compound 2-17, 2-[(3-{2-[(4-chloro-2-fluorophenyl)methoxy]pyridin-3-yl}-3,8-diazabicyclo[3.2.1]octan-8-yl)methyl]-3-[(2S)-oxetan-2-ylmethyl]-1,3-benzodiazole-5-carboxylic acid] | > 4 nM
3 | N#Cc1ccc(COc2cccc(N3CC4CCC(C3)N4Cc3nc4ccc(C(=O)O)cc4n3C[C@@H]3CCO3)c2)c(F)c1 [Compound 2-18, 2-((−3-(3-((4-cyano-2-fluorobenzyl)oxy)phenyl)-3,8-diazabicyclo[3.2.1]octan-8-yl)methyl)-1-(((S)-oxetan-2-yl)methyl)-1H-benzo[d]imidazole-6-carboxylic acid] | 1.17 nM
4 | N#Cc1ccc(COc2cccc(N3CC4CN(Cc5nc6ccc(C(=O)O)cc6n5C[C@@H]5CCO5)CC4C3)n2)c(F)c1 (stereo partly drawn) [Compound 2-20, 2-[(5-{6-[(4-cyano-2-fluorophenyl)methoxy]pyridin-2-yl}-hexahydropyrrolo[3,4-c]pyrrol-2-yl)methyl]-3-[(2S)-oxetan-2-ylmethyl]-1,3-benzodiazole-5-carboxylic acid] | 1.84 nM
5 | N#Cc1ccc(COc2cccc(N3CC4CN(Cc5nc6ccc(C(=O)O)cc6n5CC5CCO5)CC4C3)n2)c(F)c1 (stereo not shown) [Compound 2-21, 2-[(5-{6-[(4-cyano-2-fluorophenyl)methoxy]pyridin-2-yl}-hexahydropyrrolo[3,4-c]pyrrol-2-yl)methyl]-3-(oxetan-2-ylmethyl)-1,3-benzodiazole-5-carboxylic acid] | > 4 nM
6 | N#Cc1ccc(COc2cccc(N3CC4CN(Cc5nc6ccc(C(=O)O)cc6n5C[C@@H]5CCO5)CC4C3)n2)cc1 (stereo partly drawn) [Compound 2-22, 2-((5-(6-((4-cyanobenzyl)oxy)pyridin-2-yl)hexahydropyrrolo[3,4-c]pyrrol-2 (1H)-yl)methyl)-1-(((S)-oxetan-2-yl)methyl)-1H-benzo[d]imidazole-6-carboxylic acid] | 2 nM
7 | N#Cc1ccc(COc2cccc(N3CC4CN(Cc5nc6ccc(C(=O)O)cc6n5C[C@@H]5CCCO5)CC4C3)n2)c(F)c1 (stereo partly drawn) [Compound 2-23, 2-[(5-{6-[(4-cyano-2-fluorophenyl)methoxy]pyridin-2-yl}-hexahydropyrrolo[3,4-c]pyrrol-2-yl)methyl]-3-[(2S)-oxolan-2-ylmethyl]-1,3-benzodiazole-5-carboxylic acid] | > 4 nM
8 | N#Cc1ccc(COc2cccc(N3CC4CN(Cc5nc6ccc(C(=O)O)cc6n5CC5CCOC5)CC4C3)n2)c(F)c1 (stereo not shown) [Compound 2-24, 2-[(5-{6-[(4-cyano-2-fluorophenyl)methoxy]pyridin-2-yl}-hexahydropyrrolo[3,4-c]pyrrol-2-yl)methyl]-3-(oxolan-3-ylmethyl)-1,3-benzodiazole-5-carboxylic acid] | 3.05 nM
9 | N#Cc1ccc(COc2cccc(N3CC4CN(Cc5nc6ccc(C(=O)O)cc6n5Cc5cocn5)CC4C3)n2)c(F)c1 (stereo not shown) [Compound 2-25, 2-[(5-{6-[(4-cyano-2-fluorophenyl)methoxy]pyridin-2-yl}-hexahydropyrrolo[3,4-c]pyrrol-2-yl)methyl]-3-(1,3-oxazol-4-ylmethyl)-1,3-benzodiazole-5-carboxylic acid] | 1.7 nM
10 | N#Cc1ccc(COc2cccc(N3CC4CN(Cc5nc6ccc(C(=O)O)cc6n5Cc5ncco5)CC4C3)n2)c(F)c1 (stereo not shown) [Compound 2-26, 2-[(5-{6-[(4-cyano-2-fluorophenyl)methoxy]pyridin-2-yl}-hexahydropyrrolo[3,4-c]pyrrol-2-yl)methyl]-3-(1,3-oxazol-2-ylmethyl)-1,3-benzodiazole-5-carboxylic acid] | > 4 nM
11 | O=C(O)c1ccc2nc(CN3CC4CN(c5cccc(OCc6ccc(Cl)cc6F)n5)CC4C3)n(C[C@@H]3CCO3)c2c1 (stereo partly drawn) [Compound 2-27, 2-((5-(6-((4-chloro-2-fluorobenzyl)oxy)pyridin-2-yl)hexahydropyrrolo[3,4-c]pyrrol-2 (1H)-yl)methyl)-1-(((S)-oxetan-2-yl)methyl)-1H-benzo[d]imidazole-6-carboxylic acid] | > 4 nM
12 | O=C(O)c1ccc2nc(CN3CC4CN(c5cccc(OCc6ccc(F)cc6F)n5)CC4C3)n(C[C@@H]3CCO3)c2c1 (stereo partly drawn) [Compound 2-28, 2-[(5-{6-[(2,4-difluorophenyl)methoxy]pyridin-2-yl}-hexahydropyrrolo[3,4-c]pyrrol-2-yl)methyl]-3-[(2S)-oxetan-2-ylmethyl]-1,3-benzodiazole-5-carboxylic acid] | > 4 nM
13 | N#Cc1ccc(COc2cccc(N3C4CCC3CN(Cc3nc5ccc(C(=O)O)cc5n3Cc3ncco3)C4)n2)c(F)c1 [Compound 2-31, 2-[(8-{6-[(4-cyano-2-fluorophenyl)methoxy]pyridin-2-yl}-3,8-diazabicyclo[3.2.1]octan-3-yl)methyl]-3-(1,3-oxazol-2-ylmethyl)-1,3-benzodiazole-5-carboxylic acid] | 1.5 nM
14 | N#Cc1ccc(COc2cccc(N3C4CCC3CN(Cc3nc5ccc(C(=O)O)cc5n3C[C@@H]3CCCO3)C4)n2)c(F)c1 [Compound 2-32, 2-((−8-(6-((4-cyano-2-fluorobenzyl)oxy)pyridin-2-yl)-3,8-diazabicyclo[3.2.1]octan-3-yl)methyl)-1-(((S)-tetrahydrofuran-2-yl)methyl)-1H-benzo[d]imidazole-6-carboxylic acid] | 3.25 nM
15 | N#Cc1ccc(COc2cccc(N3C4CCC3CN(Cc3nc5ccc(C(=O)O)cc5n3CC3CCOC3)C4)n2)c(F)c1 (stereo not shown) [Compound 2-33, 2-[(8-{6-[(4-cyano-2-fluorophenyl)methoxy]pyridin-2-yl}-3,8-diazabicyclo[3.2.1]octan-3-yl)methyl]-3-(oxolan-3-ylmethyl)-1,3-benzodiazole-5-carboxylic acid] | > 4 nM
16 | O=C(O)c1ccc2nc(CN3CC4CCC(C3)N4c3cccc(OCc4ccccc4F)n3)n(C[C@@H]3CCO3)c2c1 [Compound 2-36, 2-((−8-(6-((2-fluorobenzyl)oxy)pyridin-2-yl)-3,8-diazabicyclo[3.2.1]octan-3-yl)methyl)-1-(((S)-oxetan-2-yl)methyl)-1H-benzo[d]imidazole-6-carboxylic acid] | > 4 nM
17 | Cc1ccc(COc2cccc(N3C4CCC3CN(Cc3nc5ccc(C(=O)O)cc5n3C[C@@H]3CCO3)C4)n2)c(F)c1 [Compound 2-37, 2-((−8-(6-((2-fluoro-4-methylbenzyl)oxy)pyridin-2-yl)-3,8-diazabicyclo[3.2.1]octan-3-yl)methyl)-1-(((S)-oxetan-2-yl)methyl)-1H-benzo[d]imidazole-6-carboxylic acid] | 0.929 nM
18 | N#Cc1ccc(COc2cccc(N3C4CCC3CN(Cc3nc5ccc(C(=O)O)cc5n3C[C@@H]3CCO3)C4)n2)cc1 [Compound 2-38, 2-((8-(6-((4-cyanobenzyl)oxy)pyridin-2-yl)-3,8-diazabicyclo[3.2.1]octan-3-yl)methyl)-1-(((S)-oxetan-2-yl)methyl)-1H-benzo[d]imidazole-6-carboxylic acid] | 0.458 nM
19 | O=C(O)c1ccc2nc(CN3CC4CCC(C3)N4c3cccc(OCc4ccc(Cl)cc4F)n3)n(C[C@@H]3CCO3)c2c1 [Compound 2-39, 2-[(8-{6-[(4-chloro-2-fluorophenyl)methoxy]pyridin-2-yl}-3,8-diazabicyclo[3.2.1]octan-3-yl)methyl]-3-[(2S)-oxetan-2-ylmethyl]-1,3-benzodiazole-5-carboxylic acid] | 0.346 nM
20 | O=C(O)c1ccc2nc(CN3CC4CCC(C3)N4c3cccc(OCc4ccncc4F)n3)n(C[C@@H]3CCO3)c2c1 [Compound 2-40, 2-((−8-(6-((3-fluoropyridin-4-yl)methoxy)pyridin-2-yl)-3,8-diazabicyclo[3.2.1]octan-3-yl)methyl)-1-(((S)-oxetan-2-yl)methyl)-1H-benzo[d]imidazole-6-carboxylic acid] | > 4 nM
21 | O=C(O)c1ccc2nc(CN3CC4CCC(C3)N4c3cccc(OCc4ccncc4)n3)n(C[C@@H]3CCO3)c2c1 [Compound 2-41, 3-[(2S)-oxetan-2-ylmethyl]-2-({8-[6-(pyridin-4-ylmethoxy)pyridin-2-yl]-3,8-diazabicyclo[3.2.1]octan-3-yl}methyl)-1,3-benzodiazole-5-carboxylic acid] | > 4 nM
22 | CS(=O)(=O)NC(=O)c1ccc2nc(CN3CC4CCC(C3)N4c3cccc(OCc4ccc(C#N)cc4F)n3)n(C[C@@H]3CCO3)c2c1 [Compound 2-42, 2-((−8-(6-((4-cyano-2-fluorobenzyl)oxy)pyridin-2-yl)-3,8-diazabicyclo[3.2.1]octan-3-yl)methyl)-N-(methylsulfonyl)-1-(((S)-oxetan-2-yl)methyl)-1H-benzo[d]imidazole-6-carboxamide] | > 4 nM
